{"source": "patent US12583829B2", "about": "“Salt of benzothiazole compound, and crystal form and use thereof” (Sichuan Kelun Pharmaceutical Research Institute Co., Ltd., priority 2020, dated 2026)", "key": {"[1]": {"assay": "Solubility test in pure water, room temperature, HPLC", "type": "physicochemical", "details": "thermodynamic from solid, excess sample, shaken at room temperature for 15 h, filtered", "procedure": "The samples were taken into pure water, and an excess amount of samples were added, which were then shaked at room temperature for 15 h, and filtered, and detected by HPLC. HPLC test conditions: mobile phase: sodium octanesulfonate-potassium dihydrogen phosphate buffer solution (5.0 g of sodium octanesulfonate and 9.1 g of potassium dihydrogen phosphate were taken, and added into 1000 ml of water for dissolution, and the pH was adjusted to 3.0 with phosphoric acid)-acetonitrile (72:28); The detection wavelength was 264 nm; The flow rate was 1.5 ml per minute; The column temperature was 40° C.; Injection volume: 10 μl; Chromatographic column: octadecyl silane bonded silica gel as filler (CAPCELL PAK MG II C18, 4.6 mm×250 mm, 5 μm)."}, "[2]": {"details": "rats, FDA data for Mirapex ER (pramipexole dihydrochloride), NDA 22-421; cited from earlier work"}}, "data": [{"smiles": "CCCN[C@H]1CCc2nc(N)sc2C1", "note": "[Compound of formula I, (S)-2-amino-4,5,6,7-tetrahydro-6-propylamine-benzothiazole]", "values": [{"measurement": "solubility at 15 h", "setting": "[1]", "result": 140, "unit": "µg/mL"}, {"measurement": "T1/2", "setting": "[2]", "result": 3.18, "unit": "h"}, {"measurement": "Tmax", "setting": "[2]", "result": 0.5, "unit": "h"}]}]}
